In PubChem BioAssay AID1259407 (Chemical Carcinogenesis Research Information System (CCRIS), 2018):
Calls of active or inactive are those of the source. How the calls were made is not given here.

System: CCRIS mutagenicity, Ames/micronucleus/aberration tests
Test: CCRIS mutagenicity studies
Details: Test System: AMES SALMONELLA TYPHIMURIUM, Method: PREINCUBATION
[1] = Strain/Indicator: TA97, Metabolic Activation: NONE
[2] = Strain/Indicator: TA98, Metabolic Activation: NONE
[3] = Strain/Indicator: TA100, Metabolic Activation: NONE
[4] = Strain/Indicator: TA1535, Metabolic Activation: NONE

Measured: mutagenic call

CCCCC(CC)CNCC(CC)CCCC (configuration not stated)
inactive: Strain/Indicator: TA97, Metabolic Activation: HAMSTER, LIVER, S-9, AROCLOR 1254 (10%) inactive; negative | Strain/Indicator: TA97, Metabolic Activation: HAMSTER, LIVER, S-9, AROCLOR 1254 (30%) inactive; negative | [1] inactive; negative | Strain/Indicator: TA97, Metabolic Activation: RAT, LIVER, S-9, AROCLOR 1254 (10%) inactive; negative | Strain/Indicator: TA97, Metabolic Activation: RAT, LIVER, S-9, AROCLOR 1254 (30%) inactive; negative | Strain/Indicator: TA98, Metabolic Activation: HAMSTER, LIVER, S-9, AROCLOR 1254 (10%) inactive; negative | Strain/Indicator: TA98, Metabolic Activation: HAMSTER, LIVER, S-9, AROCLOR 1254 (30%) inactive; negative | [2] inactive; negative | Strain/Indicator: TA98, Metabolic Activation: RAT, LIVER, S-9, AROCLOR 1254 (10%) inactive; negative | Strain/Indicator: TA98, Metabolic Activation: RAT, LIVER, S-9, AROCLOR 1254 (30%) inactive; negative | Strain/Indicator: TA100, Metabolic Activation: HAMSTER, LIVER, S-9, AROCLOR 1254 (10%) inactive; negative | Strain/Indicator: TA100, Metabolic Activation: HAMSTER, LIVER, S-9, AROCLOR 1254 (30%) inactive; negative | [3] inactive; negative | Strain/Indicator: TA100, Metabolic Activation: RAT, LIVER, S-9, AROCLOR 1254 (10%) inactive; negative | Strain/Indicator: TA100, Metabolic Activation: RAT, LIVER, S-9, AROCLOR 1254 (30%) inactive; negative | Strain/Indicator: TA1535, Metabolic Activation: HAMSTER, LIVER, S-9, AROCLOR 1254 (10%) inactive; negative | Strain/Indicator: TA1535, Metabolic Activation: HAMSTER, LIVER, S-9, AROCLOR 1254 (30%) inactive; negative | [4] inactive; negative | Strain/Indicator: TA1535, Metabolic Activation: RAT, LIVER, S-9, AROCLOR 1254 (10%) inactive; negative | Strain/Indicator: TA1535, Metabolic Activation: RAT, LIVER, S-9, AROCLOR 1254 (30%) inactive; negative

O=CNc1ccccc1
inactive: Strain/Indicator: TA97, Metabolic Activation: HAMSTER, LIVER, S-9, AROCLOR 1254 (10 OR 30%) inactive; negative | [1] inactive; negative | Strain/Indicator: TA97, Metabolic Activation: RAT, LIVER, S-9, AROCLOR 1254 (10 OR 30%) inactive; negative | Strain/Indicator: TA98, Metabolic Activation: HAMSTER, LIVER, S-9, AROCLOR 1254 (10 OR 30%) inactive; negative | [2] inactive; negative | Strain/Indicator: TA98, Metabolic Activation: RAT, LIVER, S-9, AROCLOR 1254 (10 OR 30%) inactive; negative | Strain/Indicator: TA100, Metabolic Activation: HAMSTER, LIVER, S-9, AROCLOR 1254 (10 OR 30%) inactive; negative | [3] inactive; negative | Strain/Indicator: TA100, Metabolic Activation: RAT, LIVER, S-9, AROCLOR 1254 (10 OR 30%) inactive; negative | Strain/Indicator: TA1535, Metabolic Activation: HAMSTER, LIVER, S-9, AROCLOR 1254 (10 OR 30%) inactive; negative | [4] inactive; negative | Strain/Indicator: TA1535, Metabolic Activation: RAT, LIVER, S-9, AROCLOR 1254 (10 OR 30%) inactive; negative
